Experimental data taken from ChEMBL document CHEMBL1255560, “2-, 3-, and 4-(1-Oxo-1H-2,3-dihydroisoindol-2-yl)benzoic acids and their corresponding organotin carboxylates: synthesis, characterization, fluorescent, and biological activities” (2010).
In brackets after ≈: the same amount, converted by molar mass.

Columns and labels:
Format in all cases: functional
Candida albicans = experiment: Antifungal activity against Candida albicans by double dilution technique
Escherichia coli = experiment: Antibacterial activity against Escherichia coli by double dilution technique
Pseudomonas aeruginosa = experiment: Antibacterial activity against Pseudomonas aeruginosa by double dilution technique
Staphylococcus aureus = experiment: Antibacterial activity against Staphylococcus aureus by double dilution technique

MIC (Candida albicans) [µg/mL]	MIC (Escherichia coli) [µg/mL]	MIC (Pseudomonas aeruginosa) [µg/mL]	MIC (Staphylococcus aureus) [µg/mL]	SMILES
0.625 (≈ 2.47 µM)	0.625 (≈ 2.47 µM)	0.625 (≈ 2.47 µM)	1.25 (≈ 4.94 µM)	O=C(O)c1cccc(N2Cc3ccccc3C2=O)c1
1.25 (≈ 4.94 µM)	2.5 (≈ 9.87 µM)	1.25 (≈ 4.94 µM)	2.5 (≈ 9.87 µM)	O=C(O)c1ccccc1N1Cc2ccccc2C1=O
1.25 (≈ 4.94 µM)	1.25 (≈ 4.94 µM)	0.625 (≈ 2.47 µM)	1.25 (≈ 4.94 µM)	O=C(O)c1ccc(N2Cc3ccccc3C2=O)cc1
